Laboratory results reported in paper PMC10482825 (Scientific Reports, 2023).
Several values for one entry are separate records, joined by “and”; a condition that tells them apart may be missing. Equal values may be shown once. Where a SMILES comes first, the peptide text is derived from it.

Experiments:
[1] = system: the different tested pathogens; format: cell-based; details: span over tested pathogens, undetected values disregarded
Text: (§1) The microbial strains used in this study were Bacillus subtilis (ATCC, 11774), Candida albicans (TIMM, 1768), Enterococcus faecalis (ATCC, 33186), Escherichia coli (ATCC, 11775), Klebsiella pneumoniae (ATCC, 13883), Methicillin-resistant Staphylococcus aureus (ATCC, BAA-41), Pseudomonas aeruginosa (ATCC, 10145), Salmonella enterica (ATCC, 14028), Serratia marcescens (ATCC, 13880), Staphylococcus aureus (ATCC, 25923) and Vibrio parahaemolyticus (ATCC, 17802). All microbial strains were cultivated overnight at 37 °C and 200 rpm, then subcultured and incubated for 3 h under the same incubation conditions to obtain the mid-logarithmic growth phase. The cultivated cells were washed twice with 10 mM Tris–HCl containing 5 mM D-glucose at pH 7.4 and suspended in the same buffer to be used in different assays, as previously described.
As a conclusive quantitative assessment, broth microtiter assay was used to determine the MIC values of each cryptide against B. subtilis, MRSA, S. enterica, P. aeruginosa, V. parahaemolyticus and C. albicans by following the guidelines of the Clinical and Laboratory Standards Institute (CLSI)[67], with slight modifications. Eighty microliters of 5 × 10^4 CFU/ml of each pathogen were dispensed into a 96-well polypropylene microtiter plate. The wells were then treated with 20 µl of serially diluted cryptides for 3 h at 37 °C. Gentamicin was used for positive controls at 0.2 mg/ml while an equivalent volume of acidified water was used for negative controls. The plates were then topped up with a final concentration of 1 × Mueller Hinton Broth (MHB) and incubated for 18 h under the same incubation conditions. MIC was detected as the lowest concentration of each cryptide that prevents the optically detectable microbial growth at OD = 600 nm.

[2] = system: S. enterica mature biofilm; experiment: Antibiofilm microtiter plate assay (mature biofilm, crystal violet); format: cell-based, Salmonella enterica (ATCC, 14028); details: for Minimal biofilm eradication concentration (MBEC) S. enterica: tested 12.5-200 µM
Method: The antibiofilm activities of the selected cryptides against S. enterica and MRSA mature biofilms were examined by microtiter plate assay as previously described, with slight modification. During the mid-logarithmic phase, S. enterica and MRSA were suspended at the density of 1.7 × 10^8 CFU/ml in MHB. Then 100 µl of each bacterial suspension was dispensed into a vinyl 96 U-shaped-well plate and incubated overnight at 37 °C. The mature biofilms were washed with 10 mM Tris–HCl containing 5 mM D-glucose at pH 7.4 and treated for 8 h with 100 µl of two-fold serially diluted cryptides, under the same incubation conditions. A sterile MHB medium was used as the positive control while an equivalent volume of acidified water was used to treat the negative controls. The treated biofilms were washed twice with the same washing buffer and stained with 0.1% crystal violet for 15 min followed by rinsing with sterile distilled water twice and then dried for 30 min at 37 °C. The stain was dissolved with 33% acetic acid and transferred to an optically clear 96-well flat bottom plate which was then measured at 600 nm.
Table S.4 Antibiofilm activities of the selected Cryptides against S. enterica and MRSA. Microbial cells were suspended at 1.7 X 10^8 CFU/ml density, during the mid-logarithmic phase in MHB. Then, 96 U-shaped -well plates were inoculated with 100 µl of microbial suspension and incubated for 48 h at 37 °C. The formed biofilms were washed with 10 mM Tris-HCl and treated with 100 µl of different concentrations of each peptide for 24 h. The treated biomasses were washed and fixed with methanol for 15 min at -20 °C before staining with 0.1 % crystal violet. The stained biofilms were dissolved in 100 µl of 33 % acetic acid and the quantities of crystal violet stains were determined by measuring absorbance at 600 nm as an indicator of the remaining biomass after treatment. Untreated cells were used as negative control [indicating 100 % biofilm integrity] while the sterile medium was used as a positive control [indicating 0 % biofilm integrity].
S. enterica MRSA S. enterica MRSA S. enterica MRSA S. enterica MRSA S. enterica MRSA

[3] = system: human RBCs; experiment: Hemolytic assay; format: cell-based; details: 2% RBCs in PBS, 2 h, 37 °C, supernatant at 450 nm, 0.1% TritonX-100 = maximum; highest tested concentration 100 µM
Method: All methods were carried out in accordance with the Declaration of Helsinki, and the Research Ethics Committee approved all experimental protocols at Sunway University (approval no. PGSUREC2020/005). A human blood sample was collected from a healthy person for this assay upon obtaining informed consent. The fresh blood sample was centrifuged at 3700 g for 5 min at RT. The supernatant (serum) was removed and red blood cells (RBCs) were washed three times with 1X PBS and diluted to a final concentration of 2% (PBS—137 mM NaCl, 2.7 mM KCl, 10 mM Na2HPO4, 1.76 mM KH2PO4). Cells were stored at 4 °C, and used within 5 h.
The hemolytic activities of the identified cryptides were evaluated as previously described. The prepared RBCs were treated with different peptide concentrations for 2 h at 37 °C. The treated RBCs were centrifuged, under the same centrifugation conditions, and the supernatants were transferred to a 96-well plate and measured at 450 nm.

[4] = system: E. faecalis; experiment: Radial diffusion assay; format: cell-based, Enterococcus faecalis (ATCC, 33186); details: 5 µl of 500 µM per 3 mm well, 37 °C, mean ± SD
Text: as §1
(§2) The antimicrobial activity spectra of the selected cryptides were screened against all the mentioned microbial pathogens, except V. parahaemolyticus, by radial diffusion assay as previously described, with slight modifications. […] The plates were then incubated for 18 h, and the antimicrobial activities were measured in the absolute unit (AU), as previously described. […]
(§3) plate. The plates were then incubated for 12 h at 37 °C and antimicrobial activities were measured in the term of absolute unit (A.U). […]

[5] = system: P. aeruginosa; experiment: Radial diffusion assay; format: cell-based, Pseudomonas aeruginosa (ATCC, 10145); details: 5 µl of 500 µM per 3 mm well, 37 °C, mean ± SD
Text: as §1, §2, §3

[6] = crystal violet, absorbance 600 nm, mean ± SD

| Compound | MBC values, range against the different tested pathogens [1] | MIC values, range against the different tested pathogens [1] | Minimal biofilm eradication concentration (MBEC) S. enterica [2] [µM] | Hemolysis of human RBCs at 100 µM [3] [%] | Antimicrobial activity (inhibition zone) E. faecalis [4] [A.U.] | Biofilm eradication S. enterica, 12.5 µM [2, 6] [%] | Biofilm eradication S. enterica, 25 µM [2, 6] [%] | Biofilm eradication S. enterica, 50 µM [2, 6] [%] | Biofilm eradication S. enterica, 100 µM [2, 6] [%] | Biofilm eradication S. enterica, 200 µM [2, 6] | Antimicrobial activity (inhibition zone) P. aeruginosa [5] [A.U.] |
| --- | --- | --- | --- | --- | --- | --- | --- | --- | --- | --- | --- |
| CC(C)C[C@H](NC(=O)[C@H](CCCNC(=N)N)NC(=O)[C@H](Cc1c[nH]c2ccccc12)NC(=O)[C@H](CCCNC(=N)N)NC(=O)[C@H](CC(C)C)NC(=O)[C@@H](N)Cc1ccccc1)C(=O)N[C@@H](CCCCN)C(=O)N[C@@H](Cc1ccccc1)C(=O)N[C@@H](CCCCN)C(=O)N[C@@H](CO)C(=O)N[C@@H](CCCCN)C(=O)N[C@H](C(=O)N[C@@H](Cc1c[nH]c2ccccc12)C(=O)N[C@@H](CS)C(=O)N1CCC[C@H]1C(=O)O)C(C)C [AD7] (H-FLRWRLKFKSKVWCP-OH) | 0.39 ~ 25 µM | 0.39 ~ 6.25 µM | 100 | 26.5 |  |  |  |  |  |  |  |
| CSCC[C@H](NC(=O)[C@H](CCCCN)NC(=O)CNC(=O)[C@H](CCCCN)NC(=O)[C@H](Cc1ccc(O)cc1)NC(=O)[C@H](CC(N)=O)NC(=O)[C@H](CC(C)C)NC(=O)[C@H](CCC(N)=O)NC(=O)[C@H](CC(C)C)NC(=O)[C@@H](N)CCCNC(=N)N)C(=O)N[C@@H](Cc1c[nH]c2ccccc12)C(=O)N[C@@H](CS)C(=O)N1CCC[C@H]1C(=O)NCC(=O)N[C@@H](Cc1c[nH]c2ccccc12)C(=O)O [AD11] (H-RLQLNYKGKMWCPGW-OH) |  |  | 200 | 20.7 |  |  |  |  |  |  |  |
| RHCLRSKRPPNVCPH [AD4, cationic cryptide from P. vannamei precursor DN34505 (Pl-crustin 2), chemically synthesised] |  |  |  |  | 14.7 ± 1.2 | 6.16 ± 2.7 | 12.58 ± 1.9 | 30.41 ± 1.9 | 45.13 ± 2 | 80.63 ± 1% and 80.63% | 0 |
